{"source": "patent US20240366644A1", "about": "“ANTI-INFLAMMATORY APPLICATION OF GINSENOSIDE RD” (priority 2022, published 2024)", "key": {"[1]": {"test_system": "xylene-induced swelling of mouse ears", "assay": "Xylene-induced swelling of mouse ears", "format": "in vivo, Kunming mice", "settings": "for Ear mass difference / Swelling degree: 4 h after xylene", "method": "[…] KM mice, weighing 18-22 g, were randomly grouped, with ten mice in each group. The groups include a model group, a positive control group (Indomethacin, 10 mg/kg), a ginsenoside Rd low-dose group (5 mg/kg), and a ginsenoside Rd high-dose group (10 mg/kg). After 30 min of gavage administration of mice (the model group was administrated with the equal volume of 0.5% sodium carboxymethylcellulose by gavage), 0.03 ml of xylene was evenly applied to both sides of the right ear of each mouse in each group to cause inflammations on both sides, and the left ear of the mouse was not applied as a control. After 4 h, the mouse was killed by dislocation of cervical vertebra, the two ears of the mouse were cut off along the auricle, round ear slices of the same size (a diameter of 6 mm) were taken at the same position of the left and right ears and weighed respectively, a mass difference of the two ear slices was used as an ear swelling degree, and a swelling inhibition rate was calculated."}, "[2]": {"test_system": "influenza virus-infected mice", "assay": "TNF-α and IL-6 in serum and lung tissues of influenza virus-infected mice", "format": "in vivo, ICR mice", "method": "A lump of absorbent cotton was put into a beaker of 200-300 mL, and then poured with an appropriate amount of ether (till the absorbent cotton was wetted). The beaker filled with the absorbent cotton was inverted, and added with the mice for anesthesia. When the mice were extremely excited and then obviously weak, that is, the anesthesia depth was moderate, the mice were taken out. The ether-anesthetized mice were placed on their backs, with the mouse head facing upward, and then were subjected to intranasal infection. A diluted influenza virus was added to nostrils at 0.03 mL/nostril. A blank group was administrated with normal saline, instead of a virus suspension.\nThe mice were randomly divided into four groups, that is, drug groups (10 mg/kg, 5 mg/kg), a model group, and a blank group were administrated by routine gavage on the day before infection, once a day; and the blank group and the model group were perfused with the equal volume of normal saline.\nOn the Day 1, Day 3, Day 5 and Day 7 after influenza virus infection, venous blood was collected from the plexus ophthalmicus, and blood from mice in each group was preserved, subjected to serum separation, and stored in a refrigerator for later use.\nAccording to the instructions of a test kit, various detection and analysis were carried out, and TNF-α and IL-6 concentrations were calculated based on the standard detection and standard curve plotting.\nOn the Day 1, Day 3, Day 5 and Day 7 after influenza virus infection, after the mice were killed by bleeding from the eyeballs, the whole lungs were picked, homogenized in a homogenizer according to a ratio of lung weight (g):normal saline (mL)=1:9, and centrifuged; and a supernatant was stored in the refrigerator for later use. According to the instructions of a test kit, various detection and analysis were carried out, and TNF-α and IL-6 concentrations were calculated based on the standard detection and standard curve plotting."}, "[3]": {"test_system": "Chronic Obstructive Pulmonary Disease in Rats", "assay": "Serum TNF-α and IL-8 in rats with chronic obstructive pulmonary disease (LPS + smoking)", "format": "in vivo, SD rats", "method": "After adaptive feeding (20-25° C., a humidity of 50-60%) for 1 week, the rats were randomly divided into a blank group, a model group, a positive control group, a ginsenoside Rd high-dose group, and a ginsenoside Rd low-dose group, with ten rats in each group.\nModel group: on the Day 1 and Day 14, each rat was intraperitoneally injected with 10% chloral hydrate (300 mg/kg) for anesthesia; the head was fixed in a low position; the glottis was exposed; lipopolysaccharide was quickly injected into the trachea; and the rat was kept upright, and swung left and right for 10-20 s, such that the lipopolysaccharide was evenly distributed in the two lungs. On the Days 2-13, and 15-28, the lungs were smoked in a closed organic glass box for 30 min every day, with 15 cigarettes per day.\nPositive control group: the animal was anesthetized, and intratracheally injected with lipopolysaccharide, wherein smoking conditions and time were the same as those of the model group; and after tracheal injection of lipopolysaccharide for two weeks, the animal was administrated with Simvastatin by gavage (2.5 mg/kg), and killed after six weeks, and serum was collected.\nIn accordance with the instructions, the levels of TNF-α and IL-8 in the serum were detected by enzyme-linked immunosorbent assay. The data was expressed as x±s, p<0.05, which meant that it was statistically significant."}, "[4]": {"settings": "5 mg/kg gavage 30 min before xylene"}, "[5]": {"settings": "10 mg/kg gavage 30 min before xylene"}, "[6]": {"settings": "high-dose 10 mg/kg gavage once a day, 1 d after infection"}, "[7]": {"settings": "high-dose 10 mg/kg gavage once a day, 3 d after infection"}, "[8]": {"settings": "high-dose 10 mg/kg gavage once a day, 5 d after infection"}, "[9]": {"settings": "high-dose 10 mg/kg gavage once a day, 7 d after infection"}, "[10]": {"settings": "low-dose 5 mg/kg gavage once a day, 1 d after infection"}, "[11]": {"settings": "low-dose 5 mg/kg gavage once a day, 3 d after infection"}, "[12]": {"settings": "low-dose 5 mg/kg gavage once a day, 5 d after infection"}, "[13]": {"settings": "low-dose 5 mg/kg gavage once a day, 7 d after infection"}}}
{"compound": "CC(C)=CCC[C@](C)(O[C@@H]1O[C@H](CO)[C@@H](O)[C@H](O)[C@H]1O)[C@H]1CC[C@]2(C)[C@@H]1[C@H](O)C[C@@H]1[C@@]3(C)CC[C@H](O[C@@H]4O[C@H](CO)[C@@H](O)[C@H](O)[C@H]4O[C@@H]4O[C@H](CO)[C@@H](O)[C@H](O)[C@H]4O)C(C)(C)[C@@H]3CC[C@]12C", "note": "[Ginsenoside Rd, ginsenoside Rd]", "values": [{"measurement": "Ear mass difference", "setting": "[1]; [4]", "value": "11.84 ± 1.02", "unit": "mg"}, {"measurement": "Swelling degree", "setting": "[1]; [4]", "value": "7.56 ± 2.05 (mg) (%)"}, {"measurement": "ear swelling inhibition rate compared with Indomethacin", "setting": "[1]; 10 mg/kg", "value": "close to that of Indomethacin"}, {"measurement": "Ear mass difference", "setting": "[1]; [5]", "value": "7.68 ± 0.39", "unit": "mg"}, {"measurement": "Swelling degree", "setting": "[1]; [5]", "value": "6.59 ± 1.96 (mg) (%)"}, {"measurement": "inhibition at 5 mg/kg", "setting": "[1]; Mus musculus, po, ear swelling, 5 mg/kg gavage, read-out: Inhibition rate", "value": 30.3, "unit": "%"}, {"measurement": "inhibition at 10 mg/kg", "setting": "[1]; Mus musculus, po, ear swelling, 10 mg/kg gavage, read-out: Inhibition rate", "value": 39.3, "unit": "%"}, {"measurement": "ear swelling of mice caused by xylene", "setting": "[1]; compared with the model group", "value": "significantly inhibit ear swelling"}, {"measurement": "Lung tissue IL-6", "setting": "[2]; [6]", "value": "43.56 ± 3.46", "unit": "pg/mL"}, {"measurement": "Lung tissue TNF-α", "setting": "[2]; [6]", "value": "31.34 ± 3.25", "unit": "pg/mL"}, {"measurement": "Serum IL-6", "setting": "[2]; [6]", "value": "46.21 ± 3.03", "unit": "pg/mL"}, {"measurement": "Serum TNF-α", "setting": "[2]; [6]", "value": "26.53 ± 1.02", "unit": "pg/mL"}, {"measurement": "Lung tissue IL-6", "setting": "[2]; [7]", "value": "43.47 ± 2.58", "unit": "pg/mL"}, {"measurement": "Lung tissue TNF-α", "setting": "[2]; [7]", "value": "32.09 ± 2.51", "unit": "pg/mL"}, {"measurement": "Serum IL-6", "setting": "[2]; [7]", "value": "46.52 ± 2.23", "unit": "pg/mL"}, {"measurement": "Serum TNF-α", "setting": "[2]; [7]", "value": "26.83 ± 2.04", "unit": "pg/mL"}, {"measurement": "Lung tissue IL-6", "setting": "[2]; [8]", "value": "42.39 ± 3.41", "unit": "pg/mL"}, {"measurement": "Lung tissue TNF-α", "setting": "[2]; [8]", "value": "31.97 ± 2.94", "unit": "pg/mL"}, {"measurement": "Serum IL-6", "setting": "[2]; [8]", "value": "45.79 ± 3.19", "unit": "pg/mL"}, {"measurement": "Serum TNF-α", "setting": "[2]; [8]", "value": "26.99 ± 1.55", "unit": "pg/mL"}, {"measurement": "Lung tissue IL-6", "setting": "[2]; [9]", "value": "42.21 ± 2.64", "unit": "pg/mL"}, {"measurement": "Lung tissue TNF-α", "setting": "[2]; [9]", "value": "30.08 ± 3.28", "unit": "pg/mL"}, {"measurement": "Serum IL-6", "setting": "[2]; [9]", "value": "45.23 ± 2.95", "unit": "pg/mL"}, {"measurement": "Serum TNF-α", "setting": "[2]; [9]", "value": "25.88 ± 1.66", "unit": "pg/mL"}, {"measurement": "Lung tissue IL-6", "setting": "[2]; [10]", "value": "46.86 ± 2.76", "unit": "pg/mL"}, {"measurement": "Lung tissue TNF-α", "setting": "[2]; [10]", "value": "32.98 ± 2.27", "unit": "pg/mL"}, {"measurement": "Serum IL-6", "setting": "[2]; [10]", "value": "47.15 ± 2.31", "unit": "pg/mL"}, {"measurement": "Serum TNF-α", "setting": "[2]; [10]", "value": "28.32 ± 1.21", "unit": "pg/mL"}, {"measurement": "Lung tissue IL-6", "setting": "[2]; [11]", "value": "46.29 ± 2.05", "unit": "pg/mL"}, {"measurement": "Lung tissue TNF-α", "setting": "[2]; [11]", "value": "34.72 ± 2.44", "unit": "pg/mL"}, {"measurement": "Serum IL-6", "setting": "[2]; [11]", "value": "47.22 ± 2.57", "unit": "pg/mL"}, {"measurement": "Serum TNF-α", "setting": "[2]; [11]", "value": "28.19 ± 1.27", "unit": "pg/mL"}, {"measurement": "Lung tissue IL-6", "setting": "[2]; [12]", "value": "46.21 ± 2.73", "unit": "pg/mL"}, {"measurement": "Lung tissue TNF-α", "setting": "[2]; [12]", "value": "32.14 ± 2.16", "unit": "pg/mL"}, {"measurement": "Serum IL-6", "setting": "[2]; [12]", "value": "46.62 ± 2.01", "unit": "pg/mL"}, {"measurement": "Serum TNF-α", "setting": "[2]; [12]", "value": "28.07 ± 1.43", "unit": "pg/mL"}, {"measurement": "Lung tissue IL-6", "setting": "[2]; [13]", "value": "46.52 ± 3.02", "unit": "pg/mL"}, {"measurement": "Lung tissue TNF-α", "setting": "[2]; [13]", "value": "30.86 ± 3.05", "unit": "pg/mL"}, {"measurement": "Serum IL-6", "setting": "[2]; [13]", "value": "46.59 ± 3.46", "unit": "pg/mL"}, {"measurement": "Serum TNF-α", "setting": "[2]; [13]", "value": "27.94 ± 1.16", "unit": "pg/mL"}, {"measurement": "inflammatory factors TNF-α and IL-6 after influenza virus infection", "setting": "[2]; mouse, in vivo", "value": "could down-regulate the related inflammatory factors"}, {"measurement": "IL-8 in serum", "setting": "[3]; high-dose 10 mg/kg", "value": "24.88 ± 14.67"}, {"measurement": "TNF-α in serum", "setting": "[3]; high-dose 10 mg/kg", "value": "12.13 ± 17.06"}, {"measurement": "efficacy on serum inflammatory factors compared with Simvastatin", "setting": "[3]; high-dose group", "value": "considerable to that of Simvastatin"}, {"measurement": "IL-8 in serum", "setting": "[3]; low-dose 5 mg/kg", "value": "30.97 ± 13.70"}, {"measurement": "TNF-α in serum", "setting": "[3]; low-dose 5 mg/kg", "value": "12.92 ± 10.20"}]}
